Experimental data: patent US10633407B2, “14-membered ketolides and methods of their preparation and use” (President and Fellows of Harvard College, priority 2014, dated 2020)
Converted amounts (≈) assume the structure as drawn. Like-named read-outs stand apart in the source and are kept apart here.

Experiments:
Assay in all cases: CLSI broth dilution MIC determination
Type in all cases: cell-based
[1] = test system: S. pyogenes Macrolide-resistant
[2] = test system: K. pneumoniae KPC-2
[3] = test system: A. baumannii IMP-4
[4] = test system: E. faecalis Vancomycin-resistant
[5] = test system: A. baumannii imipenem-resistant
[6] = test system: E. faecalis ATCC 29212
[7] = test system: E. coli ATCC 25922
How it was run: (§1)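 MICs measured following CLSI broth dilution methodology. The strains tested include macrolide-resistant and multidrug-resistant isolates whose resistance genotypes can be constitutive or inducible.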

[8] = test system: S. pneumoniae ATCC 49619
How it was run: as §1

[9] = test system: E. coli TEM-1
How it was run: as §1

[10] = test system: S. aureus MRSA: USA300
How it was run: as §1

[11] = test system: S. pneumoniae erm B + tet(M,O) genotype; details: Streptococcus pneumoniae
How it was run: as §1

[12] = test system: S. aureus USA600, GISA
How it was run: as §1

[13] = test system: S. aureus ATCC 29213
How it was run: as §1

[14] = test system: E. coli NDM-1
How it was run: as §1

[15] = test system: S. pneumoniae mef A genotype (second strain so labelled)
How it was run: as §1

[16] = test system: S. aureus MRSA: USA100
How it was run: as §1

[17] = test system: S. pneumoniae erm B + mef A genotype
How it was run: as §1

[18] = test system: S. aureus erm A genotype
How it was run: as §1

[19] = test system: K. pneumoniae TEM-10
[20] = test system: S. pneumoniae mef A genotype (first strain so labelled)
How it was run: as §1

[21] = test system: H. influenzae ATCC49247
How it was run: as §1

[22] = test system: E. coli CTX-M-14
How it was run: as §1

[23] = test system: K. pneumoniae ATCC 10031
[24] = test system: P. aeruginosa HPA101-1477
[25] = test system: S. pyogenes ATCC 19615
[26] = test system: K. pneumoniae SHV-12
[27] = test system: A. baumannii chromosomal class C
[28] = test system: A. baumannii ATCC 19606
[29] = test system: P. aeruginosa ATCC 27853
[30] = Acinetobacter baumannii, read-out: MIC

Q: Which results are given for `CC[C@H]1OC(=O)[C@H](C)[C@@H](O[C@H]2C[C@@](C)(OC)[C@@H](O)[C@H](C)O2)[C@H](C)[C@@H](O[C@@H]2O[C@H](C)C[C@H](N(C)C)[C@H]2O)[C@](C)(O)C[C@@H](C)CN(C)[C@H](C)[C@@H](O)[C@]1(C)O` [Azithro, azithromycin, reference compound]?
A: MIC ([1]; S. pyogenes Macrolide-resistant, Gram-positive): 2 µg/mL (≈ 2.67 µM); MIC ([1]; Streptococcus pyogenes, S. pyogenes Macrolide-resistant (MP-625 UNT-014), read-out: MIC): 2 µg/mL (≈ 2.67 µM); MIC ([2]; Gram-negative): > 32 µg/mL; MIC ([2]; Klebsiella pneumoniae, KPC2, read-out: MIC): > 32 µg/mL; MIC ([3]; Acinetobacter baumannii, IMP4, read-out: MIC): > 32 µg/mL; MIC ([3]; Gram-negative): > 32 µg/mL; MIC ([4]; E. faecalis Vancomycin-resistant, Gram-positive): > 32 µg/mL; MIC ([4]; Enterococcus faecalis, E. faecalis Vancomycin-resistant (UNT-039), read-out: MIC): > 32 µg/mL; MIC [5, 30]: 8 µg/mL (≈ 10.7 µM); MIC ([5]; Gram-negative): 8 µg/mL (≈ 10.7 µM); MIC ([6]; E. faecalis ATCC 29212, Gram-positive): 4 µg/mL (≈ 5.34 µM); MIC ([6]; Enterococcus faecalis, ATCC29212, E. faecalis ATCC 29212 (MP-24), read-out: MIC): 4 µg/mL (≈ 5.34 µM); MIC ([7]; E. coli ATCC 25922, Gram-negative): 4 µg/mL (≈ 5.34 µM); MIC ([7]; Escherichia coli, ATCC25922, E. coli ATCC 25922 (MP-4), read-out: MIC): 4 µg/mL (≈ 5.34 µM); MIC ([8]; S. pneumoniae ATCC 49619, Gram-positive): < 0.0312 µg/mL; MIC ([8]; Streptococcus pneumoniae, ATCC49619, S. pneumoniae ATCC 49619 (MP-21), read-out: MIC): < 0.0312 µg/mL; MIC ([9]; E. coli TEM-1, Gram-negative): 1 µg/mL (≈ 1.34 µM); MIC ([9]; Escherichia coli, TEM1): 1 µg/mL (≈ 1.34 µM); MIC ([10]; S. aureus MRSA: USA300, Gram-positive): 32 µg/mL (≈ 42.7 µM); MIC ([10]; Staphylococcus aureus, S. aureus MRSA: USA300 (MP-549, msr(a)), read-out: MIC): 32 µg/mL (≈ 42.7 µM); MIC [11]: < 0.0312 µg/mL; MIC ([12]; S. aureus USA600, GISA, Gram-positive): > 32 µg/mL; MIC ([12]; Staphylococcus aureus, S. aureus USA600, GISA (MP-619 UNT-120), read-out: MIC): > 32 µg/mL; MIC ([13]; S. aureus ATCC 29213, Gram-positive): 1 µg/mL (≈ 1.34 µM); MIC ([13]; Staphylococcus aureus, ATCC29213, S. aureus ATCC 29213 (MP-12), read-out: MIC): 1 µg/mL (≈ 1.34 µM); MIC ([14]; Escherichia coli, NDM1, read-out: MIC): > 32 µg/mL; MIC ([14]; Gram-negative): > 32 µg/mL; MIC ([15]; Gram-positive): 4 µg/mL (≈ 5.34 µM); MIC ([15]; Streptococcus pneumoniae, second strain (MP-627 UNT-039), read-out: MIC): 4 µg/mL (≈ 5.34 µM); MIC ([16]; S. aureus MRSA: USA100, Gram-positive): > 32 µg/mL; MIC ([16]; Staphylococcus aureus, S. aureus MRSA: USA100 (MP-618 UNT-096), read-out: MIC): > 32 µg/mL; MIC ([17]; S. pneumoniae erm B + mef A genotype, Gram-positive): > 32 µg/mL; MIC ([17]; Streptococcus pneumoniae): > 32 µg/mL; MIC ([18]; S. aureus erm A genotype, Gram-positive): > 32 µg/mL; MIC ([18]; Staphylococcus aureus, S. aureus erm A genotype (MP-620 UNT-146), read-out: MIC): > 32 µg/mL; MIC ([19]; Gram-negative): 8 µg/mL (≈ 10.7 µM); MIC ([19]; Klebsiella pneumoniae, TEM10, read-out: MIC): 8 µg/mL (≈ 10.7 µM); MIC ([20]; Streptococcus pneumoniae, first strain (MP-626 UNT-038)): 0.25 µg/mL (≈ 0.334 µM); MIC ([20]; first of two rows so labelled, Gram-positive): 0.25 µg/mL (≈ 0.334 µM); MIC ([21]; Gram-negative): 0.5 µg/mL (≈ 0.668 µM); MIC ([21]; Haemophilus influenzae, read-out: MIC): 0.5 µg/mL (≈ 0.668 µM); MIC ([22]; Escherichia coli, CTXM14, read-out: MIC): > 32 µg/mL; MIC ([22]; Gram-negative): > 32 µg/mL; MIC ([23]; K. pneumoniae ATCC 10031, Gram-negative): 4 µg/mL (≈ 5.34 µM); MIC ([23]; Klebsiella pneumoniae, ATCC10031, K. pneumoniae ATCC 10031 (MP-14), read-out: MIC): 4 µg/mL (≈ 5.34 µM); MIC ([24]; Gram-negative): > 32 µg/mL; MIC ([24]; Pseudomonas aeruginosa, HPA1011477, read-out: MIC): > 32 µg/mL; MIC ([25]; S. pyogenes ATCC 19615, Gram-positive): < 0.0312 µg/mL; MIC ([25]; Streptococcus pyogenes, ATCC19615, S. pyogenes ATCC 19615 (MP-19), read-out: MIC): < 0.0312 µg/mL; MIC ([26]; Gram-negative): 16 µg/mL (≈ 21.4 µM); MIC ([26]; Klebsiella pneumoniae, SHV12, read-out: MIC): 16 µg/mL (≈ 21.4 µM); MIC [27, 30]: 32 µg/mL (≈ 42.7 µM); MIC ([27]; Gram-negative): 32 µg/mL (≈ 42.7 µM); MIC ([28]; A. baumannii ATCC 19606, Gram-negative): 16 µg/mL (≈ 21.4 µM); MIC ([28]; Acinetobacter baumannii, ATCC19606, A. baumannii ATCC 19606 (MP-15), read-out: MIC): 16 µg/mL (≈ 21.4 µM); MIC ([29]; P. aeruginosa ATCC 27853, Gram-negative): > 32 µg/mL; MIC ([29]; Pseudomonas aeruginosa, ATCC27853, P. aeruginosa ATCC 27853 (MP-3), read-out: MIC): > 32 µg/mL
